Legend:
Human FAAH = target: T1, Human FAAH (Homo sapiens, UniProt O00519); test: Assay Method 1: FAAH assay, hydrolysis of 3H-anandamide by cell homogenate; format: biochemical; conditions: T84 or transfected SK-N-MC cell homogenate, 3H-AEA 80 nM, rt 1 h, average of results obtained
T1 construct: expressed in transfected cells; alternatively T84 frozen cell pellets
T1 sequence (O00519 1-579): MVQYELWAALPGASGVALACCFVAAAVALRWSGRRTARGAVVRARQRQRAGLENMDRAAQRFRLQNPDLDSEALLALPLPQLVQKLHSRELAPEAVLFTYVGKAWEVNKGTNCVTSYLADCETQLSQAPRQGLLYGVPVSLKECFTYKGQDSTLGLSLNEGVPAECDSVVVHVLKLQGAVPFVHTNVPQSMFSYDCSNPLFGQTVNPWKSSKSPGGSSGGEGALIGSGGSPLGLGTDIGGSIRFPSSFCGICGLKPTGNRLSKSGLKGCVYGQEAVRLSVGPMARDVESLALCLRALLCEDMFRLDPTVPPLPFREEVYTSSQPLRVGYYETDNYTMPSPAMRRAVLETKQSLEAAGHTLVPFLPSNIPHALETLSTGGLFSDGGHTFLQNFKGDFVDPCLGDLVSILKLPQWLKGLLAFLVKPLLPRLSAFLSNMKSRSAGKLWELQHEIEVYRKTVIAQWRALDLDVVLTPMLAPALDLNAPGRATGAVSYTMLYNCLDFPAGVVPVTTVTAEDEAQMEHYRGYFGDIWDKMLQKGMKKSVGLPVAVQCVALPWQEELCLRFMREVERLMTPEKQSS
Experimental: A. Transfection of Cells with Human FAAH
(§1) A 10-cm tissue culture dish with a confluent monolayer of SK-N-MC cells was split 2 days (d) prior to transfection. Using sterile technique, the media was removed and the cells were detached from the dish by the addition of trypsin. One fifth of the cells were then placed onto a new 10-cm dish. Cells were grown in a 37° C. incubator with 5% CO2 in Minimal Essential Media Eagle with 10% Fetal Bovine Serum. After 2 d, cells were approximately 80% confluent. These cells were removed from the dish with trypsin and pelleted in a clinical centrifuge. The pellet was re-suspended in 400 μL complete media and transferred to an electroporation cuvette with a 0.4 cm gap between the electrodes. Supercoiled human FAAH cDNA (1 μg) was added to the cells and mixed. The voltage for the electroporation was set at 0.25 kV, and the capacitance was set at 960 μF. After electroporation, the cells were diluted into complete media (10 mL) and plated onto four 10-cm dishes. Because of the variability in the efficiency of electroporation, four different concentrations of cells were plated. The ratios used were 1:20, 1:10, and 1:5, with the remainder of the cells being added to the fourth dish. The cells were allowed to recover for 24 h before adding the selection media (complete media with 600 μg/mL G418). After 10 d, dishes were analyzed for surviving colonies of cells. Dishes with well-isolated colonies were used. Cells from individual colonies were isolated and tested.
(§2) T84 frozen cell pellets or transfected SK-N-MC cells (contents of 1×15 cm culture dishes) were homogenized in 50 mL of FAAH assay buffer (125 mM Tris, 1 mM EDTA, 0.2% Glycerol, 0.02% Triton X-100, 0.4 mM Hepes, pH 9). The assay mixture consisted of 50 μL of the cell homogenate, 10 μL of the test compound, and 40 μL of anandamide [1-^3H-ethanolamine] (^3H-AEA, Perkin-Elmer, 10.3 Ci/mmol), which was added last, for a final tracer concentration of 80 nM. The reaction mixture was incubated at rt for 1 h. During the incubation, 96-well Multiscreen filter plates (catalog number MAFCNOB50; Millipore, Bedford, Mass., USA) were loaded with 25 μL of activated charcoal (Multiscreen column loader, catalog number MACL09625, Millipore) and washed once with 100 μL of MeOH. Also during the incubation, 96-well DYNEX MicroLite plates (catalog number NL510410) were loaded with 100 μL of MicroScint40 (catalog number 6013641, Packard Bioscience, Meriden, Conn., USA). After the 1 h incubation, 60 μL of the reaction mixture were transferred to the charcoal plates, which were then assembled on top of the DYNEX plates using
Centrifuge Alignment Frames (catalog number MACF09604, Millipore). The unbound labeled ethanolamine was centrifuged through to the bottom plate (5 min at 2000 rpm), which was preloaded with the scintillant, as described above. The plates were sealed and left at rt for 1 h before counting on a Hewlett Packard TopCount.
(§3) Results for compounds tested in these assays are summarized in Table 1, as an average of results obtained. Compounds were tested in free base, hydrochloride salt, and/or trifluoroacetic acid salt forms. Where activity is shown as greater than (>) a particular value, the value is the solubility limit of the compound in the assay medium or the highest concentration tested in the assay.

Rat FAAH = target: T2, Rat FAAH (Rattus norvegicus, UniProt P97612); test: Assay Method 2: FAAH assay, hydrolysis of 3H-anandamide by cell homogenate; format: biochemical; conditions: T84 or transfected SK-N-MC cell homogenate, 3H-AEA 80 nM, rt 1 h, average of results obtained
T2 construct: expressed in transfected cells
T2 sequence (P97612 1-579): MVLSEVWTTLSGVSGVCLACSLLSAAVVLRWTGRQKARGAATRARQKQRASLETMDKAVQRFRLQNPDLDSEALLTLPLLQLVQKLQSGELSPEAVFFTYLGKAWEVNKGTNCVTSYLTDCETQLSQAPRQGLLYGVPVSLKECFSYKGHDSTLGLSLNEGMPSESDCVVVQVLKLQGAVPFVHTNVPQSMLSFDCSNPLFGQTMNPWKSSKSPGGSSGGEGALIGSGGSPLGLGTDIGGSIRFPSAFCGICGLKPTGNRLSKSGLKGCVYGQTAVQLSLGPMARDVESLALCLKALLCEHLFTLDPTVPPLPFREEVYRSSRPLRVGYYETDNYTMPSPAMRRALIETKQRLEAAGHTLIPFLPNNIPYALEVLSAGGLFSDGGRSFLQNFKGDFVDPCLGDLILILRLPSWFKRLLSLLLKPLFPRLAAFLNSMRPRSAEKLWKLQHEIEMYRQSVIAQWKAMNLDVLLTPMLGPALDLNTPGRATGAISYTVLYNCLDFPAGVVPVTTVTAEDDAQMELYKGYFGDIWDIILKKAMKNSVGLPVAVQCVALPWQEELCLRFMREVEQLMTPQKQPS
Experimental: A. Transfection of Cells with Rat FAAH
as §1, with “rat” for “human”, “[…]” for “960 μF.”
as §2, with “25” for “25 μL”, “using Centrifuge Alignment Frames (catalog number MACF09604, Millipore). The unbound labeled ethanolamine was centrifuged through to the bottom plate (5 min at 2000 rpm), which was preloaded with the scintillant, as described above. The plates were sealed and left at rt for 1 h before counting on a Hewlett Packard TopCount.” for “using”
as §3

IC50 (Human FAAH) [µM]	IC50 (Rat FAAH) [nM]	Compound
10	> 10000	O=C(Nc1ccncn1)N1CCCC(Cc2ccc(F)cc2)C1 (centres unmarked) [Example 4, 3-[4(4-Fluorophenyl)methyl]-N-pyrimidin-4-ylpiperidine-1-carboxamide]
0.645	50	O=C(Nc1noc2ccccc12)N1CCCC(Cc2cccc(C(F)(F)F)c2)C1 (centres unmarked) [Example 6, N-1,2-Benzisoxazol-3-yl-3-{[3-(trifluoromethyl)-phenyl]-methyl}-piperidine-1-carboxamide]
0.018	19	O=C(Nc1cccnc1)N1CCCC(Cc2cccc(Oc3ccc(F)cc3)c2)C1 (centres unmarked) [Example 10, 3-[3-(4-Fluorophenoxy)benzyl]-N-pyridin-3-ylpiperidine-1-carboxamide]
8	> 10000	O=C(Nc1ccncn1)N1CCCC(Cc2ccc(C(F)(F)F)cc2)C1 (centres unmarked) [Example 2, N-Pyrimidin-4-yl-3-{[4-(trifluoromethyl)phenyl]methyl}piperidine-1-carboxamide]

Reference: US8598356B2, “Heteroaryl-substituted urea modulators of fatty acid amide hydrolase” (Janssen Pharmaceutica NV, priority 2008, dated 2013)
